Results from ChEMBL document CHEMBL1201862, “PubChem BioAssay data set” (2004).
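Protocol summary: plate cells (96-well), add compound at 5 concentrations, incubate 48 h, interpolate endpoints linearly. GI50 is the concentration that inhibits growth by half.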 Activity calls are given as the source filed them. Cut-off read from the data, not from the text of the source: active = GI50 up to about 1.1 µM and inactive = higher.

What was measured:
Test in all cases: inhibition of tumour cell growth, NCI panel, 48 h
[1] = system: M14
[2] = system: MDA-MB-435
[3] = system: CCRF-CEM
[4] = system: IGROV-1
[5] = system: EKVX
[6] = system: CAKI-1
[7] = system: HT-29
[8] = system: SF-295
[9] = system: MCF7
[10] = system: A498
[11] = system: TK-10
[12] = system: COLO 205
[13] = system: MDA-N
[14] = system: BT-549
[15] = system: U-251
[16] = system: SR
[17] = system: UACC-62
[18] = system: SF-268
[19] = system: Hs-578T

Row | Compound | GI50 [1] | GI50 [2] | GI50 [3] | GI50 [4] | GI50 [5] | GI50 [6] | GI50 [7] | GI50 [8] | GI50 [9] | GI50 [10] | GI50 [11] | GI50 [12] | GI50 [13] | GI50 [14] | GI50 [15] | GI50 [16] | GI50 [17] | GI50 [18] | GI50 [19]
1 | CNC(=O)OCCN1c2ccccc2Sc2ccccc21 | > 100 µM (inactive) | > 100 µM (inactive) | > 100 µM (inactive) | 42.1 µM (inactive) | 17.1 µM (inactive) | 36.4 µM (inactive) | > 100 µM (inactive) | 60.8 µM (inactive) | > 100 µM (inactive) | 57.5 µM (inactive) | > 100 µM (inactive) | > 100 µM (inactive) | > 100 µM (inactive) | > 100 µM (inactive) | > 100 µM (inactive) | > 100 µM (inactive) | 4.99 µM (inactive) | > 100 µM (inactive) | > 100 µM (inactive)
2 | O=C(/C=C/c1cccc(Br)c1)c1ccc(Cl)cc1 | 14.6 µM (inactive) | 6.25 µM (inactive) | 4.5 µM (inactive) | 17.1 µM (inactive) | 16 µM (inactive) | 14 µM (inactive) | 11.2 µM (inactive) | 17.5 µM (inactive) | 4.38 µM (inactive) | 13.3 µM (inactive) | 13 µM (inactive) | 17.2 µM (inactive) | 6.32 µM (inactive) | 17 µM (inactive) | 5.98 µM (inactive) | 2.42 µM (inactive) | 14.8 µM (inactive) | 17.5 µM (inactive) | 22.7 µM (inactive)
3 | CC1CCCC(C(=O)CC2CC(=O)NC(=O)C2)C1=O (centres undefined) | > 100 µM (inactive) | > 100 µM (inactive) | > 100 µM (inactive) | > 100 µM (inactive) | > 100 µM (inactive) | > 100 µM (inactive) | > 100 µM (inactive) | > 100 µM (inactive) | > 100 µM (inactive) | > 100 µM (inactive) | > 100 µM (inactive) | > 100 µM (inactive) | > 100 µM (inactive) | > 100 µM (inactive) | > 100 µM (inactive) | > 100 µM (inactive) | > 100 µM (inactive) | > 100 µM (inactive) | > 100 µM (inactive)
4 | O=C(Nc1ccc(Cl)cc1)NS(=O)(=O)c1coc2ccccc2c1=O | > 10 µM (inactive) | > 10 µM (inactive) | > 10 µM (inactive) | > 10 µM (inactive) | > 10 µM (inactive) | > 10 µM (inactive) | > 10 µM (inactive) | > 10 µM (inactive) | > 10 µM (inactive) | > 10 µM (inactive) | > 10 µM (inactive) | > 10 µM (inactive) | > 10 µM (inactive) | > 10 µM (inactive) | > 10 µM (inactive) | > 10 µM (inactive) | > 10 µM (inactive) | > 10 µM (inactive) | > 10 µM (inactive)
5 | O=P1(O)c2ccccc2CSCc2ccccc21 | > 100 µM (inactive) | > 100 µM (inactive) | > 100 µM (inactive) | > 100 µM (inactive) | > 100 µM (inactive) | > 100 µM (inactive) | > 100 µM (inactive) | > 100 µM (inactive) | > 100 µM (inactive) | > 100 µM (inactive) | > 100 µM (inactive) | > 100 µM (inactive) | > 100 µM (inactive) | > 100 µM (inactive) | > 100 µM (inactive) | > 100 µM (inactive) | > 100 µM (inactive) | > 100 µM (inactive) | > 100 µM (inactive)
6 | COC(=O)C(Cc1c(C2Nc3ccccc3C2CC(NC(=O)CNC(C)=O)C(=O)OC)[nH]c2ccccc12)NC(=O)CNC(C)=O (centres undefined) | > 100 µM (inactive) | > 100 µM (inactive) | > 100 µM (inactive) | > 100 µM (inactive) | > 100 µM (inactive) | > 100 µM (inactive) | > 100 µM (inactive) | > 100 µM (inactive) | > 100 µM (inactive) | > 100 µM (inactive) | > 100 µM (inactive) | > 100 µM (inactive) | > 100 µM (inactive) | > 100 µM (inactive) | > 100 µM (inactive) | 16.3 µM (inactive) | > 100 µM (inactive) | > 100 µM (inactive) | > 72.6 µM (inactive)
7 | O=C(N/N=C\C=C\c1ccc([N+](=O)[O-])o1)C(=O)N/N=C\C=C\c1ccc([N+](=O)[O-])o1 | 32.1 µM (inactive) | > 100 µM (inactive) | 1.36 µM (inactive) | 78.2 µM (inactive) | > 100 µM (inactive) | > 100 µM (inactive) | > 100 µM (inactive) | > 100 µM (inactive) | 44.1 µM (inactive) | > 100 µM (inactive) | 56.9 µM (inactive) | > 100 µM (inactive) | > 100 µM (inactive) | > 100 µM (inactive) | > 100 µM (inactive) | 35.5 µM (inactive) | > 100 µM (inactive) | > 100 µM (inactive) | > 100 µM (inactive)
8 | O=C(/N=S(/NC(=O)c1ccccc1)C(Cl)(Cl)Cl)c1ccccc1 (centres undefined) | 10.5 µM (inactive) | 17.7 µM (inactive) | 2.7 µM (inactive) | 8.47 µM (inactive) | 19.7 µM (inactive) | 20.9 µM (inactive) | 18.9 µM (inactive) | 9.25 µM (inactive) | 24 µM (inactive) | 27 µM (inactive) | > 100 µM (inactive) | 14.8 µM (inactive) | 29.8 µM (inactive) | 12.7 µM (inactive) | 29.9 µM (inactive) | 17.1 µM (inactive) | 22.6 µM (inactive) | 50.2 µM (inactive) | 40.6 µM (inactive)
9 | Nc1nc(Cl)cc(Oc2ccc(Cl)cc2)n1 | > 57 µM (inactive) | > 57.3 µM (inactive) | > 77.6 µM (inactive) | > 100 µM (inactive) | > 100 µM (inactive) | 44.6 µM (inactive) | > 100 µM (inactive) | > 55.8 µM (inactive) | > 53.2 µM (inactive) | > 47.5 µM (inactive) | 28.2 µM (inactive) | > 60.5 µM (inactive) | > 61 µM (inactive) | 28.2 µM (inactive) | > 56.2 µM (inactive) | > 80.4 µM (inactive) | 29.9 µM (inactive) | > 54.8 µM (inactive) | > 53.7 µM (inactive)
10 | Oc1cc(F)cc2cccnc12 | 1.02 µM (active) | 2.38 µM (inactive) | 0.0778 µM (active) | 0.889 µM (active) | 0.418 µM (active) | 3.96 µM (inactive) | 4.47 µM (inactive) | 1.1 µM (active) | 0.0689 µM (active) | 6.58 µM (inactive) | 17.9 µM (inactive) | 5.89 µM (inactive) | 12.6 µM (inactive) | 0.968 µM (active) | 0.957 µM (active) | 0.182 µM (active) | 2.73 µM (inactive) | 0.218 µM (active) | 3.68 µM (inactive)
11 | O=S(=O)(O)c1ccc(/N=N/c2ccccc2)cc1 | > 100 µM (inactive) | > 100 µM (inactive) | > 100 µM (inactive) | > 100 µM (inactive) | > 100 µM (inactive) | > 100 µM (inactive) | > 100 µM (inactive) | > 100 µM (inactive) | > 100 µM (inactive) | > 100 µM (inactive) | > 100 µM (inactive) | > 100 µM (inactive) | > 100 µM (inactive) | > 100 µM (inactive) | > 100 µM (inactive) | > 100 µM (inactive) | > 100 µM (inactive) | > 100 µM (inactive) | > 100 µM (inactive)
